Data as given in patent US11440932B2, “Surfactant compounds-clips for extraction and stabilization in solution of membrane proteins” (CENTRE NATIONAL DE LA RECHERCHE SCIENTIFIQUE, priority 2017, dated 2022).

Legend:
[1] = biological target: T1, AcrB (Escherichia coli, UniProt P31224); test: Extraction of AcrB from membranes (SDS-PAGE of supernatant); parameters: species or system bacterial; same expression system (E. coli C41DE3); conditions: detergent 10 g/l unless indicated otherwise; 2 h at 4° C.
T1 construct: made in house; host or cells: E. coli C41(DE3)
Method in brief: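 E. coli C41(DE3) membranes overexpressing BmrA (~25% of protein) or AcrB (~20%), at 2 g/l protein in 20 mM Tris-HCl pH 8.0, 100 mM NaCl, 15% glycerol with protease inhibitors, treated with detergent at 10 g/l unless stated otherwise for 2 h at 4° C. After 100 000×g centrifugation, 20 μg supernatant protein run on 10% SDS-PAGE, Coomassie-stained.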

[2] = Diameter of micelles by dynamic light scattering (DLS); type: physicochemical; conditions: for Ø, nm: estimated micelle diameter by DLS, 30 mM tris-HCl, pH 8.0
Experimental: FIG. 5 depicts the dynamic light scattering (DLS) of clips, in intensity (%, column A on the left) and in number (%, column B on the right), as a function of the […] (nm). The estimated diameters are indicated on each panel (column A). Columns A and B, from top to bottom: compound 3.7c (10 mM, 5×CMC), compound 3.7d (10 mM, 5×CMC), compound 3.7e (2 mM, […]), compound 3.7f (10 mM, 500×CMC), compound 3.7h (1 mM, 100×CMC), compound 3.7j (2 mM, 100×CMC), compound 3.9a (1 mM, 50×CMC).
Another physicochemical parameter of the micelles of detergents is their diameter, assuming that they are spherical. This dimension is obtained by the light scattering (DLS) technique.
Procedure. The molecules of the invention tested were prepared in a range of concentrations extending from 0.1 to 1000×CMC in 30 mM tris-HCl, pH 8.0 and neutralized at this pH. The solutions are filtered on 0.22 μm. The measurement is carried out on 100 μl, in triplicate on a Zetasizer Nano-S from Malvern Instruments.

[3] = biological target: T2, BmrA (Bacillus subtilis, UniProt O06967); test: Size exclusion chromatography of BmrA after detergent exchange
T2 construct: His tag; made in house; host or cells: E. coli C41(DE3)
Experimental: The membrane fraction was extracted and purified in DDM by Ni-NTA metal affinity and Superdex 200 size exclusion, before being reloaded on Ni-NTA in order to exchange the DDM either with itself or with the compound 3.7c. Each pool was subsequently loaded onto a 3 ml Superdex S200 5/150 size exclusion column and eluted in the presence of 2 CMC of the same detergent, as indicated. The proteins are detected by absorbance at 280 nm.
The capacity of the compounds of the invention to maintain the membrane proteins in a native state was exemplified with the compound 3.7c of the invention, monitored by size exclusion chromatography and compared to the reference detergent DDM.
Procedure: BmrA was extracted in DDM and purified by Ni-NTA affinity chromatography as described in example 13, then loaded onto a Superdex 200 10/300 size exclusion column and eluted with 50 mM Hepes-HCl pH 8.0, 100 mM NaCl, 0.4 mM DDM (2×CMC). The fractions containing BmrA were pooled and separated into several aliquots (˜100 μg) kept at 4° C. One aliquot was subsequently reloaded onto an affinity column containing 1 ml of resin. The DDM was then exchanged against 10 volumes of Hepes-NaCl buffer containing either 2 CMC of DDM (control experiment) or 2 CMC of compound 3.7c (2 mM). BmrA was subsequently eluted in the respective buffers with 100 mM of imidazole added. The fractions containing the proteins were combined and concentrated on 50 kDa amicon (regenerated cellulose) to 50 μl, and were then deposited on a 3 ml Superdex 200 5/150 size exclusion column, equilibrated in 50 mM Hepes-HCl pH 8.0, 100 mM NaCl, and 2 CMC of DDM (0.4 mM) or 3.7c (2 mM). The elution was subsequently carried out at 0.3 ml/min in the respective buffers and the BmrA detected at 280 nm.

T1 sequence (P31224 whole entry): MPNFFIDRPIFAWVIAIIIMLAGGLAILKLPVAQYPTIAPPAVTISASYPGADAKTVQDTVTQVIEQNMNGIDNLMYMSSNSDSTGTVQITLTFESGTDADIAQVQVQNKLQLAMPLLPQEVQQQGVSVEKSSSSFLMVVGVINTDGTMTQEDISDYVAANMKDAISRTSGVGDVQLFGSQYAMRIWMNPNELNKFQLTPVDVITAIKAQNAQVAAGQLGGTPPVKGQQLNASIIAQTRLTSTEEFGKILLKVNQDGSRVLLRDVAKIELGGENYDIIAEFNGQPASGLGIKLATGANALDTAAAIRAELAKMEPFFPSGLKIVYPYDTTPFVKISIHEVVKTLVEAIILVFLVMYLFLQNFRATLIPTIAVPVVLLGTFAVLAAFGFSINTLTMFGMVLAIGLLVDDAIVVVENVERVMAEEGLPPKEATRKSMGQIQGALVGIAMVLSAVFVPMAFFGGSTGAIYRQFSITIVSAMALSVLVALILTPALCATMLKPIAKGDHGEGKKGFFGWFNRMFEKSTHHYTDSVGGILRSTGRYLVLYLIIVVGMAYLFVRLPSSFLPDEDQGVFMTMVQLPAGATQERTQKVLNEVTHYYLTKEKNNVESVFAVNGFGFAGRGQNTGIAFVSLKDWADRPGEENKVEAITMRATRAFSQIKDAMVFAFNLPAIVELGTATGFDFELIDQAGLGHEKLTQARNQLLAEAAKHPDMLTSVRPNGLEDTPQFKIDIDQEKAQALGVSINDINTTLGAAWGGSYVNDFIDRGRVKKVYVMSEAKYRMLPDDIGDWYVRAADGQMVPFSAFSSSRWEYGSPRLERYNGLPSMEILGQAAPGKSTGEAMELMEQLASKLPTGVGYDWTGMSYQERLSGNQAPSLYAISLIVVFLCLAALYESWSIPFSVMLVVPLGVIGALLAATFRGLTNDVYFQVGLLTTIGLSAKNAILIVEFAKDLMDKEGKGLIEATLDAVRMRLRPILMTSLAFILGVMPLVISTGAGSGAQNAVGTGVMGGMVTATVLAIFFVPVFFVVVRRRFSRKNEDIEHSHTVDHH
T2 sequence (O06967 whole entry): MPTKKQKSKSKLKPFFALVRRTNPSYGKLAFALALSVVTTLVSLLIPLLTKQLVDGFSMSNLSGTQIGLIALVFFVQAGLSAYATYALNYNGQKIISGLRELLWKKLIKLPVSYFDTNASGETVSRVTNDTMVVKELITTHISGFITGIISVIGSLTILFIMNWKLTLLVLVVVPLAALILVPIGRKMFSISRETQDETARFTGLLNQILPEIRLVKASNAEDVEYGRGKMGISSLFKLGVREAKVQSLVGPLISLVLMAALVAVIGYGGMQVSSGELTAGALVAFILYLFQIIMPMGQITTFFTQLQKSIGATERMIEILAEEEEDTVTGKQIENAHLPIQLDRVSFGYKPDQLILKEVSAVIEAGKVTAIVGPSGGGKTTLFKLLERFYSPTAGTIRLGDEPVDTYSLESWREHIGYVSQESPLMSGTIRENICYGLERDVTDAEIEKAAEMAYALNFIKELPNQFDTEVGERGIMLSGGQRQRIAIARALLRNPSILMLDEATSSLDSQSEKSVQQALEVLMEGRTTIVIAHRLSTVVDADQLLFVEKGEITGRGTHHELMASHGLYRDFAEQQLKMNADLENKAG

CCCCCCCCCCCC(=O)N[C@@H](COCc1cn(CCO[C@@H]2OC(CO)[C@@H](O)C(O)C2O)nn1)C(=O)N[C@H](CCC(=O)O)C(=O)O (some centres unmarked) [Compound 3.7b]
extraction of AcrB [1]: do not extract

CCCCCCCCCCCCC(CCCCCCCCCCCC)C(=O)N[C@@H](COCc1cn(CCO[C@@H]2OC(CO)[C@@H](O)C(O)C2O)nn1)C(=O)N[C@H](CCC(=O)O)C(=O)O (some centres unmarked) [Compound 3.7j]
estimated diameter ([2]; DLS): ~60 nm | Ø, nm [2]: 60 nm | extraction of AcrB [1]: extracting

CCCCCCCCCCCCCC(=O)N[C@@H](COCc1cn(CCO[C@@H]2OC(CO)[C@@H](O)C(O)C2O)nn1)C(=O)N[C@@H](CCC(=O)O)C(=O)NCC(=O)O (some centres unmarked) [Compound 3.7l]
extraction of AcrB [1]: extracting

CCCCCCCCCCCCCC(=O)N[C@@H](COCc1cn(CCO[C@@H]2OC(CO)[C@@H](O[C@H]3OC(CO)[C@@H](O)C(O)C3O)C(O)C2O)nn1)C(=O)N[C@H](CCC(=O)O)C(=O)O (some centres unmarked) [Compound 3.7e]
Ø, nm [2]: 3.5 nm | extraction of AcrB [1]: extracting

CCCCCCCCCCCCCC(=O)N[C@@H](COCc1cn(CCO[C@@H]2OC(CO)[C@@H](O)C(O)C2O)nn1)C(=O)N[C@H](CCC(=O)O)C(=O)O (some centres unmarked) [Compound 3.7c]
Ø, nm [2]: 3.8 nm | elution volume of BmrA ([3]; Superdex 200 5/150, 2 CMC of detergent, 0.3 ml/min): ~1.6 mL | oligomerization state of BmrA ([3]; after exchange of DDM, 2 CMC (2 mM)): conserves the native oligomerization state | extraction of AcrB [1]: extracting
